# Where two headings read alike, the source gives them in different places.
# [1] = in water, ionic strength 0 to 0.1 mole/liter, 25° C.
Structure (SMILES),pKa [1],pKa (water)
"O=C(O)c1c(Cl)cccc1Cl [2,6-dichlorobenzoic acid]",1.82,
"O=C(O)c1c(F)cccc1F [2,6-difluorobenzoic acid]",,2.31
"O=C(O)c1ccc(Cl)c(Cl)c1 [3,4-dichlorobenzoic acid]",3.64,
Nc1ccccc1C(=O)O [Anthranilic acid],4.79,
CNc1ccccc1C(=O)O [N-methylanthranilic acid],5.34,
O=C(O)c1cccc(Cl)c1 [m-chlorobenzoic acid],3.82,
N#Cc1cccc(C(=O)O)c1 [m-cyanobenzoic acid],3.60,
"Cc1cccc(C(=O)O)c1 [m-methylbenzoic acid, reference compound]",,4.27
O=C(O)c1cccc(C(F)(F)F)c1 [m-trifluoromethylbenzoic acid],,3.77
CC(=O)c1ccccc1C(=O)O [o-acetylbenzoic acid],,3.79
O=C(O)c1ccccc1Br [o-bromobenzoic acid],,2.85
O=C(O)c1ccccc1Cl [o-chlorobenzoic acid],,2.92
O=C(O)c1ccccc1F [o-fluorobenzoic acid],3.27,
COc1ccccc1C(=O)O [o-methoxybenzoic acid],4.09,
O=C(O)c1ccccc1-c1ccccc1 [o-phenylbenzoic acid],,3.46
CC(=O)c1ccc(C(=O)O)cc1 [p-acetylbenzoic acid],,3.70
"O=C(O)c1c(F)c(F)c(F)c(F)c1F [pentafluorobenzoic acid, reference compound]",,1.48

# From US5466858A, “Method of producing straight-chain acrylonitrile dimers” (priority 1993, dated 1995)
